Here are results for 22 molecules from US7763617B2, “Pyrazolopyridine-4-yl pyridazinone derivatives and addition salts thereof, and PDE inhibitors comprising the same derivatives or salts as active ingredient” (Kyorin Pharmaceutical Co., Ltd., priority 2005, dated 2010).

Where two headings read alike, the source gives them in different places.

The target of test [1] is T1, PDE10A1 (Homo sapiens, UniProt Q9Y233).
T1 construct: made in house; host or cells: Sf9 insect cells (baculovirus, Bac-to-Bac)
T1 sequence (Q9Y233 1-779 isoform Q9Y233-1): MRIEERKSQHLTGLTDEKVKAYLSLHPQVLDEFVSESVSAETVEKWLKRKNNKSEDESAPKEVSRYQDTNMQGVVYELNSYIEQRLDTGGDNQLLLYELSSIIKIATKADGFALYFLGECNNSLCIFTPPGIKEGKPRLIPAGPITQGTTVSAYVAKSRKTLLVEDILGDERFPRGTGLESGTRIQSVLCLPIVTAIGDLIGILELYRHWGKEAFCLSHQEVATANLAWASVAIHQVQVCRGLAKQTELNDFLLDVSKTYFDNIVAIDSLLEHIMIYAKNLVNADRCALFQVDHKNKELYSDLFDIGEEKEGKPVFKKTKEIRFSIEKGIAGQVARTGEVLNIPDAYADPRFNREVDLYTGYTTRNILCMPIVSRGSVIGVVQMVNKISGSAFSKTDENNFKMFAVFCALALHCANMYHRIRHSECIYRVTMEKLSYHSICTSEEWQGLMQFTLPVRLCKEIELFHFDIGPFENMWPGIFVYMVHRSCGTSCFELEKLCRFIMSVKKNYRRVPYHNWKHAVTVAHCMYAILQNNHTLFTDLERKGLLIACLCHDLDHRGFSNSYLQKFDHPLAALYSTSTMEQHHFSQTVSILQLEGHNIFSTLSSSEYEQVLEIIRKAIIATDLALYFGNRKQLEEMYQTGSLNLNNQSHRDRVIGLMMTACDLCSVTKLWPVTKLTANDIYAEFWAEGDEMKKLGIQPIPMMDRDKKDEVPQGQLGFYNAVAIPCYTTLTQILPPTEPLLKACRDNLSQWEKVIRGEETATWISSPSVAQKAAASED
In words: Inhibition of phosphodiesterase activity, [3H]-cAMP hydrolysis, recombinant PDE10A1. The test is classed as biochemical. The conditions noted are these: human recombinant PDE10A1, cAMP 0.2 μmol/L; read-out: IC50(μmol/L) PDE10. As for the experimental part: (§1) RT-PCR was performed to isolate cDNA fragments of PDE3A catalytic domain (indicated as “cat,” hereinafter), PDE4Bcat, PDE5Acat and PDE10A1 from human RNA. Using Gateway system (Invitrogen) and Bac-to-Bac (registered trademark) Baculovirus Expression system (Invitrogen), the isolated cDNA fragments were transfected into Sf9 insect cells for expression of the PDE proteins. The recombinant PDE3Acat, PDE4Bcat, PDE5Acat and PDE10A1 proteins were isolated from culture supernatant or cell extracts of Sf9 cells expressed high levels of these proteins by ion-exchange chromatography and used for the following experiments.
(§2) 4 mmol/L solution of each test compound was serially diluted 4-fold with 15% DMSO solution to prepare the solutions with concentrations of 15 nmol/L to 4 mmol/L (final concentrations=1.5 nmol/L-400 μmol/L). 10 μL of each test compound solution was added to each well of 96 plate with 10 μL of [^3H]-cAMP or [^3H]-cGMP solution, diluted with a buffer (40 mmol/L Tris-HCl (pH 7.4), 10 mmol/L MgCl2) to the concentration shown in Table 20 and 40 μL of each of the human recombinant PDE proteins in units shown in Table 20. The plate was incubated at 30° C. for 20 min, and then at 65° C. for 2 min. Subsequently, 25 μL of 1 mg/mL 5′-nucleotidase (Crotalus atrox venom, Sigma) was added to each well and the plate was incubated at 30° C. for 10 min. 200 μL of Dowex solution (300 mg/mL Dowex 1×8-400 (Sigma Aldrich), 33% ethanol) was then added to each well and the plate was shaken at 4° C. for 20 min. Subsequently, 200 μL of MicroScint 20 (Packard) was added to each well and the radioactivity of each sample was measured by a scintillation counter (Topcount, Packard) IC50 was calculated by GraphPad Prism v3.03 (GraphPad Software).

In test [2] the target is T2, PDE3A catalytic domain (PDE3Acat) (Homo sapiens, UniProt Q14432).
T2 construct: cDNA fragments of PDE3A catalytic domain (indicated as “cat,” hereinafter); made in house; host or cells: Sf9 insect cells (baculovirus, Bac-to-Bac)
T2 sequence (Q14432 674-1093 limits assumed): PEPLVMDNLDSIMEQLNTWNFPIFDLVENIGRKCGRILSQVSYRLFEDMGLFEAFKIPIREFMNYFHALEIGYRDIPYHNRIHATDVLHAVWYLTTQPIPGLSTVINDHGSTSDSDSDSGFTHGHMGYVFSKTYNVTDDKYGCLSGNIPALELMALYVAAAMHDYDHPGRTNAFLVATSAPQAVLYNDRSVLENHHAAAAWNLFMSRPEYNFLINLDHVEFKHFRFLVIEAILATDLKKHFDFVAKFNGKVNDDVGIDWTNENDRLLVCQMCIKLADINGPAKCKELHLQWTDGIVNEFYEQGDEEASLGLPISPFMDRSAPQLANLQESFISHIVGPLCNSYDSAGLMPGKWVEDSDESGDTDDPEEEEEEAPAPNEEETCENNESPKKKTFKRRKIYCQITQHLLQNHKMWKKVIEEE
Kind of test: Inhibition of phosphodiesterase activity, [3H]-cAMP hydrolysis, recombinant PDE3Acat. The note with it: cAMP 2 μmol/L. It is filed as biochemical. As for the experimental part:
as §1, §2

Test [3] addresses T3, PDE4Bcat (Homo sapiens, UniProt Q07343).
T3 construct: catalytic domain (indicated as “cat,” hereinafter), PDE4Bcat; made in house; host or cells: Sf9 insect cells (baculovirus, Bac-to-Bac)
Kind of test: Inhibition of phosphodiesterase activity, [3H]-cAMP hydrolysis, recombinant PDE4Bcat. The conditions noted are these: cAMP 2 μmol/L, read-out: IC50(μmol/L) PDE4. The test is classed as biochemical. As for the experimental part: as §1, §2

For test [4], the target named is PDE5Acat (Homo sapiens, UniProt O76074). Kind of test: Inhibition of phosphodiesterase activity, [3H]-cGMP hydrolysis, recombinant PDE5Acat. The test is classed as biochemical. The note with it: cGMP 2 μmol/L, read-out: IC50(μmol/L) PDE5. How it is done:
as §1, §2

Test [5] concerns histamine-induced bronchoconstriction. In words: Histamine-induced bronchoconstriction in guinea pigs. It is filed as in vivo, guinea pig. The note with it: Cavia porcellus, iv, 0.5 min, 30 seconds after administration, histamine 12.5 μg/kg i.v.; for inhibition in vivo at 1 mg/kg: test compound 1 mg/kg i.v.; for inhibition in vivo at 0.1 mg/kg: values in brackets: test compound 0.1 mg/kg, i.v. As for the experimental part: Guinea pigs were anesthetized with pentobarbital (30 mg/kg, i.p.). A cannula for IV administeration, a cannula for collecting blood and measurement of blood pressure and a trachea cannula were inserted into the left exterior jugular vein, right interior carotid artery and trachea, respectively. The animals were placed under artificial respiration at 60 times/min and 10 mL/kg/stroke. The airflow through the branch of the tracheal cannula was measured by a bronchospasm transducer (Ugo-Basile) and recorded on a computer via Power Lab (ADInstruments Japan). The animals were immobilized with gallamine (10 mg/kg, i.v.), then administered histamine at 10-minute intervals (12.5 μg/kg, i.v.). […] To examine the inhibitory activity of test compound, the histamine-induced bronchoconstriction was measured after 30 seconds of drug administration. The bronchoconstriction was recorded as the change of the airflow: The results were shown by percentages of the maximum histamine-induced bronchoconstriction. Each test compound was prepared as a 10 mg/mL solution in DMSO. Gallamine was prepared as a 10 mg/mL solution in physiological saline. Histamine was prepared as a 1 mg/mL solution in physiological saline, which was diluted with physiological saline to 62.5 μg/mL for use.

[6] abbreviates: human recombinant PDE3Acat, read-out: IC50(μmol/L) PDE3.

T3 sequence (Q07343 330-659 limits assumed): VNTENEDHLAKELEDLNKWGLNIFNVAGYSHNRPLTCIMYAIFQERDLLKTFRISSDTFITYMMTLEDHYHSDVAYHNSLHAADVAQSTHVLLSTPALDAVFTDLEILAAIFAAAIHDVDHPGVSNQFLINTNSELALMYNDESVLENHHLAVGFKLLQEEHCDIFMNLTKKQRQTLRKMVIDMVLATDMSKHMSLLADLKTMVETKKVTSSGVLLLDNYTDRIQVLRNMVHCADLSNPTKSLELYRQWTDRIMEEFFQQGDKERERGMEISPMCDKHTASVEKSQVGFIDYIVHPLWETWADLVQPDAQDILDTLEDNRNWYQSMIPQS

Regarding `COc1ccc(C2=NN(Cc3ccccc3)C(=O)CC2)c2cc(C(C)C)nn12` [Example 284], the IC50 in test [1] lay in the range of 1 to 10 µmol/L.
As to `COc1ccc(-c2ccc(=O)n(Cc3ccccc3)n2)c2c(C(=O)O)c(C(C)C)nn12` [Example 267, 2-benzyl-6-(3-carboxy-7-methoxy-2-isopropyl-pyrazolo[1,5-a]pyridine-4-yl)-3-(2H)-pyridazinone], the IC50 was more than 10 µmol/L in test [2] (setting [6]), 1 to 10 µmol/L in test [3], more than 10 µmol/L in test [1] and more than 10 µmol/L in test [4].
As for `COc1ccc(C2=NN(Cc3cccnc3)C(=O)CC2)c2cc(C(C)C)nn12` [Example 285], the IC50 in test [2] (setting [6]) was more than 10 µmol/L; in test [3], 1 to 10 µmol/L; in test [1], 1 to 10 µmol/L; in test [4] it was more than 10 µmol/L.
As to `CCc1cc2c(-c3ccc(=O)[nH]n3)ccc(OC)n2n1` [Example 306], the IC50 is 1 to 10 µmol/L in test [2] (setting [6]), 1 to 10 µmol/L in test [3], more than 10 µmol/L in test [1] and more than 10 µmol/L in test [4]. In addition, in test [5], the inhibition in vivo – broadly, the change of the read-out against control, counted positive when it falls – at 1 mg/kg is not below 90%.
`COc1ccc(C2=NNC(=O)C(C)C2)c2cc(C(C)C)nn12` (stereo not drawn) [Example 283]: the IC50 in test [2] (setting [6]) was more than 10 µmol/L; in test [3] it was 0.1 to 1 µmol/L; in test [1], more than 10 µmol/L; in test [4], more than 10 µmol/L.
Take `CCc1cc2c(C3=NNC(=O)CC3)cc(Cl)cn2n1` [Example 202]: the IC50 was more than 10 µmol/L in test [2] (setting [6]), more than 10 µmol/L in test [3], 1 to 10 µmol/L in test [1] and more than 10 µmol/L in test [4]. The molecule further returned an inhibition in vivo at 1 mg/kg in test [5] not below 90%.
Turning to `CCc1cc2c(C3=NN(Cc4cccnc4)C(=O)CC3C)cc(Cl)cn2n1` (stereo not drawn) [Example 312, 6-(6-chloro-2-ethyl-pyrazolo[1,5-a]pyridine-4-yl)-4,5-dihydro-5-methyl-2-(pyridine-3-ylmethyl)-3-(2H)-pyridazinone], the IC50 is more than 10 µmol/L in test [2] (setting [6]), 1 to 10 µmol/L in test [3], more than 10 µmol/L in test [1] and more than 10 µmol/L in test [4].
As for `COc1ccc(C2=NNC(=O)CC2C)c2cc(C(C)C)nn12` (stereo not drawn) [Example 282], the IC50 in test [2] (setting [6]) is 1 to 10 µmol/L; in test [3] it was 0.1 to 1 µmol/L; in test [1], 1 to 10 µmol/L; in test [4], more than 10 µmol/L. The same molecule gave an inhibition in vivo at 1 mg/kg in test [5] not below 90%.
On to `COC(=O)c1c(C(C)C)nn2c(OC)ccc(-c3ccc(=O)n(Cc4ccccc4)n3)c12` [Example 266, 2-benzyl-6-(7-methoxy-3-methoxycarbonyl-2-isopropyl-pyrazolo[1,5-a]pyridine-4-yl)-3-(2H)-pyridazinone], for which the IC50 in test [2] (setting [6]) was more than 10 µmol/L; in test [3], 1 to 10 µmol/L; in test [1], more than 10 µmol/L; in test [4], more than 10 µmol/L.
As to `CCc1cc2c(C3=NNC(=O)CC3C)cc(Cl)cn2n1` (single isomer, unassigned; (-)) [Example 314, (−)-6-(6-chloro-2-ethyl-pyrazolo[1,5-a]pyridine-4-yl)-5-methyl-4,5-dihydro-3-(2H)-pyridazinone], the IC50 in test [2] (setting [6]) was more than 10 µmol/L; in test [3], 0.1 to 1 µmol/L; in test [1] it was more than 10 µmol/L; in test [4], more than 10 µmol/L. For the same molecule, in test [5], the inhibition in vivo at 0.1 mg/kg was 80 to 90%.
For the molecule `CCc1cc2c(C3=NNC(=O)CC3)ccc(OC)n2n1` [Example 210, 6-(2-ethyl-7-methoxy-pyrazolo[1,5-a]pyridine-4-yl)-4,5-dihydro-3-(2H)-pyridazinone], the IC50 in test [2] (setting [6]) was more than 10 µmol/L; in test [3], 1 to 10 µmol/L; in test [1] it was more than 10 µmol/L; in test [4] it was more than 10 µmol/L. Moreover, the inhibition in vivo at 1 mg/kg in test [5] was not below 90%.
As for `COc1ccc(-c2ccc(=O)n(Cc3cccnc3)n2)c2cc(C(C)C)nn12` [Example 273], the IC50 is more than 10 µmol/L in test [2] (setting [6]), 1 to 10 µmol/L in test [3], 1 to 10 µmol/L in test [1] and more than 10 µmol/L in test [4].
In the case of `COc1ccc(C2=NNC(=O)CC2)c2cc(C(F)(F)F)nn12` [Example 209, 6-(7-methoxy-2-trifluoromethyl-pyrazolo[1,5-a]pyridine-4-yl)-4,5-dihydro-3-(2H)-pyridazinone], the results for the IC50 in test [2] (setting [6]) and in test [3] were more than 10 µmol/L and 0.1 to 1 µmol/L, respectively. Besides, the inhibition in vivo at 0.1 mg/kg in test [5] is 80 to 90%.
Regarding `CCc1cc2c(C3=NNC(=O)CC3C)ccc(NCCO)n2n1` (stereo not drawn) [Example 247, 6-[2-ethyl-7-(2-hydroxyethylamino)-pyrazolo[1,5-a]pyridine-4-yl]-4,5-dihydro-5-methyl-3-(2H)-pyridazinone], the IC50 in test [2] (setting [6]) and in test [3] was 1 to 10 µmol/L each time. The inhibition in vivo at 0.1 mg/kg in test [5] lay in the range of 70 to 80%.
Consider `CCc1nn2c([S+](C)[O-])ccc(C3=NNC(=O)CC3C)c2c1O` (stereo not drawn) [Example 250], for which the IC50 in test [2] (setting [6]) is 1 to 10 µmol/L; in test [3] it was 0.1 to 1 µmol/L. Besides, the inhibition in vivo at 0.1 mg/kg in test [5] is not below 90%.
`COc1ccc(-c2cc(C)c(=O)[nH]n2)c2cc(C(C)C)nn12` [Example 278, 6-(7-methoxy-2-isopropyl-pyrazolo[1,5-a]pyridine-4-yl)-4-methyl-3-(2H)-pyridazinone]: the IC50 in test [2] (setting [6]) was more than 10 µmol/L; in test [3] it was 0.1 to 1 µmol/L; in test [1], more than 10 µmol/L; in test [4], more than 10 µmol/L.
With `COc1ccc(-c2ccc(=O)n(Cc3ccccc3)n2)c2cc(C(C)C)nn12` [Example 272], the IC50 in test [1] was in the range of 0.1 to 1 µmol/L.
Consider `COCc1cc2c(C3=NNC(=O)CC3C)ccc(OC)n2n1` (stereo not drawn) [Example 220], for which the IC50 in test [2] (setting [6]) lay within 1 to 10 µmol/L; in test [3], 0.1 to 1 µmol/L. This molecule also came in with an inhibition in vivo at 0.1 mg/kg in test [5] not below 90%.
In the case of `CCc1cc2c(C3=NNC(=O)CC3C)ccc(OC(C)C)n2n1` (stereo not drawn) [Example 245, 6-(7-isopropoxy-2-ethyl-pyrazolo[1,5-a]pyridine-4-yl)-4,5-dihydro-5-methyl-3-(2H)-pyridazinone], the IC50 was 1 to 10 µmol/L in test [2] (setting [6]) and more than 10 µmol/L in test [3]. Also, in test [5], the inhibition in vivo at 0.1 mg/kg was not below 90%.
Consider `CCc1cc2c(C3=NNC(=O)CC3C)ccc(SC)n2n1` (stereo not drawn) [Example 223], for which the IC50 in test [2] (setting [6]) was 1 to 10 µmol/L; in test [3] it was 0.1 to 1 µmol/L. Also, the inhibition in vivo at 0.1 mg/kg in test [5] is not below 90%.
Take `COc1ccc(C2=NNC(=O)CC2C)c2cc(C)nn12` (stereo not drawn) [Example 215]: the IC50 in test [2] (setting [6]) lay within 1 to 10 µmol/L; in test [3], 0.1 to 1 µmol/L. In addition, in test [5], the inhibition in vivo at 0.1 mg/kg is 80 to 90%.
Turning to `CCc1cc2c(C3=NNC(=O)CC3C)ccc(OC)n2n1` (single isomer, unassigned; (+)) [Example 315, (+)-6-(2-ethyl-7-methoxy-pyrazolo[1,5-a]pyridine-4-yl)-5-methyl-4,5-dihydro-3-(2H)-pyridazinone], the IC50 in test [2] (IC50(μmol/L) PDE3, human recombinant PDE3Acat) is 1 to 10 µmol/L; in test [3], 1 to 10 µmol/L; in test [1], 1 to 10 µmol/L; in test [4] it was more than 10 µmol/L. In test [5], the inhibition in vivo at 0.1 mg/kg is not below 90%.
